“Also recorded” adds a separate entry of the source.

Test [1] relates to GFP translation (Escherichia coli S30 extracts). The experiment in a line: Coupled in vitro transcription-translation inhibition assay (GFP fluorescence). The note with it: for inhibitory effect on coupled in vitro transcription-translation (in words): peptide 300 μM to 2 mM, GFP fluorescence 0 min to 2 h, 37° C. Type of test: biochemical. As for the experimental part:
Peptides with high frequency in the screening against wild-type h31 were synthesized. The peptides (DIRTQRE (SEQ ID NO: 6), CVRPFAL (SEQ ID NO: 4), FVRPFAL (SEQ ID NO: 7), TLWDLIP (SEQ ID NO: 3) and TYLPWPA (SEQ ID NO: 2)), were synthesized and their sequences were determined from the phage display experiments. The inhibitory effects of these peptides on cellular processes were determined by in vitro coupled transcription-translation inhibition assay. The PURExpress™ in vitro protein synthesis kit # E6800S from New England Biolabs (NEB) was used for this purpose. This kit contains all of the necessary components for the transcription and translation, except for the DNA template. The amounts of reagents from the kit were added according to the NEB manual. We used a DNA template for GFP (pRSETEmGFP plasmid) at a concentration of 10 μg/ml in a 15 μl of reaction volume. Different concentrations of peptides were added, ranging from 300 μM to 2 mM. The DNA template was added only after mixing of the peptides or streptomycin so that they can bind to their target region. For the control, streptomycin was added at a final concentration of 300 μM. The reaction was incubated in 384-well, Costar, clear-well, black plates and in situ incubated at 37° C. in the fluorometer. The amount of GFP translation was monitored at different intervals of time from 0 min to 2 h by fluorescence (excitation at 487 nm, emission at 509 nm) using a Gemini XPS microplate spectrofluorometer, (Molecular Devices).
A cell-free translation assay was used to test the inhibitory effects of the peptides on protein synthesis. The pRSETEmGFP plasmid that was used as template has an EmGFP gene under control of the T7 promoter (FIG. 48). Upon transcription with T7 polymerase, EmGFP mRNA was formed and undergoes translation by ribosomes to produce the green fluorescent protein (GFP). The degree of inhibition on transcription and translation due to the presence of peptide could be determined by measuring the level of GFP fluorescence. Escherichia coli S30 extracts were used, which contained all of the necessary factors and supplements for translation. The rate of GFP translation in the presence or absence of peptide was measured at different time intervals.

Test [2] deals with E. coli h31 RNA (ECh31WT). The experiment in a line: SPR kinetic analysis of binding to immobilized biotinylated helix 31 RNA. How it is done: SPR methods. All immobilization and subsequent binding studies were performed using a BIAcore 2000 instrument set at a temperature of 25° C. Standard dextran surface BIAcore sensorchips (Sensor chip CM5) were purchased from BIAcore. Standard desorb and sanitize routines were performed according to the BIAcore guidelines before docking a new CM5 sensor chip. All buffers were filtered through sterile 0.2 μm nylon membranes (Millipore™) under vacuum. Before derivatizing the flow cells with streptavidin, the CM5 sensor chip was pre-conditioned using three successive 10 μl injections of chip-preparation solution (10 mM NaOH, 500 mM NaCl) at 100 μl/min, followed by a normalization routine using BIAnormalizing solution (40% glycerol). Streptavidin derivatization was performed as described in Chapter 3. Prior to immobilization, the solution of biotinylated RNA in HBS-EP buffer (10 mM HEPES, 3 mM EDTA, 150 mM NaCl, 0.005% P20 at pH 7.4) was renatured by heating to 90° C. for 2 min followed by placing on ice. Flow cells were functionalized by injecting 30 μl of RNA at a time using the MANUAL INJECT command at a flow rate of 10 μl/min, until the desired immobilization level is reached. One of the flow cells was used to immobilize RNA (typically FC4), while another one adjacent to it (FC3) remained unmodified to serve as a blank-control for matrix effects. Levels of RNA captured were calculated by subtracting […] for each flow cell. After RNA immobilization, FC3 and FC4 were blocked with 100 μL of 1 mg/mL biotin at 5 μL/min.
Peptide samples were prepared by serial dilutions from stock solutions into micro-centrifuge tubes. Dilutions are made by the same running buffer to avoid buffer mismatches. […]
Biotinylated helix 31 RNA was immobilized onto a streptavidin-coated CM5 chip and differing concentrations of 17 (TYLPWPA)-GFP (“TYLPWPA” disclosed as SEQ ID NO: 2) were injected as the analyte. […] Finally, the apparent dissociation constants were determined under optimized conditions. […]

In test [3] the test system is E. coli helix 31 hairpin RNA (ECh31WT). The experiment in a line: Fluorescence titration of 5′-fluorescein-labeled helix 31 RNA with peptide. Type of test: binding. The note with it: 0.5 μM h31, 10 mM HEPES, 50 mM NaCl, 1 mM Na2EDTA, pH 7.5, 25° C.; hyperbolic curve fitting; read-out: apparent KD (fluorescence). How it is done: Fluorescence methods. Fluorescence measurements were taken on a RF-5301PC spectrofluorometer (Shimadzu) at 25° C. using a 1 cm path-length quartz fluorometer cell. The emission spectra were acquired by scanning between 500 and 600 nm with an excitation wavelength of 494 nm, slit widths of 3 nm for excitation and emission. The fluorescent titrations were performed by adding increasing concentrations of peptide (5-150 μM) to 350 μl of 0.5 μM 5′-fluorescein-labeled helix 31 RNA in HEPES buffer (10 mM HEPES, 50 mM NaCl, 1 mM Na2EDTA at pH 7.5) and incubated for 2 min for each concentration point followed by spectrum scanning. […] RNA-peptide binding was determined by quenching of the fluorescence intensity upon addition of peptide to the sample. The fluorescence intensity at 523 nm was converted to a fraction bound ratio and the dissociation constant (KD) of RNA-peptide binding was determined by curve fitting using the Kaleidagraph™ 3.0 program, as described in Chapter 3, Section 3.5.3
Fluorescence titration assay. […] In this experiment, the fluorescence intensity decreased upon increases in the peptide concentration (FIG. 54); however, the percent change in the observed fluorescence intensity was fairly small (7%). […]
The relatively poor fits may be a result of the fact that the fluorescence changes are quite small leading to greater error. […]

For test [4] the test system is unchanged. The experiment in a line: Circular dichroism titration of helix 31 RNA with peptide. Type of test: binding. The note with it: 0.5 μM h31, 100 mM NaCl, 10 mM sodium phosphate, 0.1 mM Na2EDTA, pH 7; CD at 270 nm; read-out: apparent KD (circular dichroism). As for the experimental part: Binding studies with CD. The titration was performed by adding increasing concentrations of peptide (10-80 μM) to 1 mL of 0.5 μM ECh31WT RNA in 10 mM sodium phoshate, 100 mM NaCl, 0.1 mM Na2EDTA at pH 7, and incubated for 2 min for each concentration point followed by spectrum scanning. Prior to titration, the RNA was renatured as described in Chapter 3, Section 3.2.2. RNA-peptide binding was determined by observing CD changes at 270 nm upon addition of peptide to the sample. The CD at 270 nm was converted to a fraction bound ratio and the dissociation constant (KD) of RNA-peptide binding was determined by curve fitting using the Kaleidagraph™ 3.0 program, as described in Chapter 3, Section 3.2.4.
Circular dichroism studies. CD was employed to assess the conformational changes in helix 31 upon binding of the peptide. […] Conformational changes in helix 31 measured by circular dichroism spectroscopy was performed in 100 mM NaCl, 10 mM sodium phosphate, and 0.1 mM Na2EDTA at pH 7. […] The dissociation constant (KD) of RNA-peptide binding was determined by plotting Fr versus peptide concentration, and by curve fitting to Equation, Fr=[P]^n/([P]^n+KD^n) where [P] is the peptide concentration, n is the Hill coefficient, and KD is the apparent dissociation constant (FIG. 56B). […]

In the case of `[H]/N=C(/N)N[C@H]1[C@H](O)[C@@H](O)[C@H](O[C@@H]2O[C@@H](C)[C@](O)(C=O)[C@H]2O[C@@H]2O[C@@H](CO)[C@H](O)[C@@H](O)[C@@H]2NC)[C@@H](N/C(N)=N\[H])[C@@H]1O` [Streptomycin, reference compound], the “GFP translation with positive control” value in test [1] (300 μM) is “no GFP translation was observed”.

“CVRPFAL [compound 15, 7-mer peptide selected by phage display against helix 31 RNA]”: the “inhibitory effect on coupled in vitro transcription-translation (in words)” value in test [1] is “greater inhibitory effects on in vitro protein synthesis than other peptides”; in test [1] (listed as CVRPFAL), “best inhibitory effects; also recorded: strong inhibitory effects”.

As for “DIRTQRE [compound 18, 7-mer peptide selected by phage display against helix 31 RNA]”, the “inhibitory effect on coupled in vitro transcription-translation (in words)” value in test [1] is “did not inhibit transcription or translation even up to 2 mM; also recorded: least inhibitory effect”. On the same count and under the same terms, as for “FVRPFAL [compound 16, 7-mer peptide selected by phage display against helix 31 RNA]”, the entry is “best inhibitory effects; also recorded: strong inhibitory effects”; as for “TLWDLIP [compound 14, 7-mer peptide selected by phage display against helix 31 RNA]”, “greater inhibitory effects on in vitro protein synthesis than other peptides”. For “TYLPWPA [peptide 17, 7-mer peptide selected by phage display against helix 31 RNA]”, the “affinity for helix 31 RNA (in words)” value in test [2] is listed as “moderate affinity”. Besides, in test [2] (Langmuir 1:1 model, same running buffer, pH 7.5, 50 μL/min), the “KD (SPR, kd/ka)” value worked out at 28 ± 1 µM. In addition, in test [2] (peptide without GFP), the “SPR response due to binding, free peptide as analyte” value is given as “negligible responses”. For the same compound, the Kd was found to be 27 ± 4 µM in test [3] and 28 ± 10 µM in test [4].

These data come from patent publication US8362203B2, “Non-natural peptides as models for the development of antibiotics” (priority 2009, dated 2013).
